In patent US10464901B2, “Composition including benzene diamine derivative for preventing or treating degenerative brain diseases” (UNIST(ULSAN NATIONAL INSTITUTE OF SCIENCE AND TECHNOLOGY), priority 2017, dated 2019):

How the values were obtained:
Cu(II)-Aβ = experiment: Aβ aggregation inhibition, gel electrophoresis and Western blotting with anti-Aβ antibody (6E10); assay type: biochemical
Excerpt: It was examined whether the benzene diamine derivatives of the present disclosure have inhibitory effects on Aβ aggregation. Aβ has two isoforms, and therefore, effects on Aβ40 and Aβ42 were examined, respectively. When metals are involved in protein folding, the probability of abnormal folding is high. In this case, the probability of Aβ aggregate formation is further increased.
In order to perform molecular analysis of Aβ aggregation-inhibitory effects of the benzene diamine derivatives of the present disclosure, gel electrophoresis and Western blotting were performed by using anti-Aβ antibody (6E10). As a control group, compound 1
In detail, each sample (10 μl) was separated on a 10-20% Tris-tricine gel (Invitrogen, Grand Island, N.Y., USA). After separation, the proteins were transferred onto a nitrocellulose membrane and blocked with bovine serum albumin (BSA, 3% w/v, Sigma-Aldrich, St Louis, Mo., USA) in Tris-buffered saline (TBS) containing 0.1% Tween-20 (TBS-T) at room temperature for 2 hours or at 4° C. overnight. The membrane was incubated in a 2% BSA (w/v in TBS-T) solution, together with anti-Aβ antibody (6E10, 1:2,000, Covance, Princeton, N.J., USA), at room temperature for 4 hours or at 4° C. overnight. The membrane was washed with TBS-T (3×, 10 min), and a secondary mouse antibody (1:5,000 in 2% BSA w/v in TBS-T; Cayman Chemical Company, Ann Arbor, Mich., USA) was added thereto, followed by incubation at room temperature for 1 hour. Thermo Scientific SuperSignal West Pico Chemiluminescent Substrate (Thermo Scientific, Rockford, Ill., USA), Biosesang ECL Plus kit (Biosesang, Gyeonggi-do, Republic of Korea), or homemade ECL kit53 were used for visualization, and ChemiDoc MP Imaging System (Bio-Rad, Hercules, Calif., USA) was used for detection.

[1] = test system: APP/PS/Tau dementia mouse model; experiment: Morphological change of brain of dementia mouse model; assay type: in vivo; conditions: oral 100 μg/kg twice a week for 2 months, FIG. 6
Excerpt: In order to examine therapeutic effects of the benzene diamine derivatives on dementia, dementia mouse models were orally administered with the benzene diamine derivative, and morphological changes in the brains thereof were examined.
In detail, APP/PS/Tau was purchased as the dementia mouse model from Jackson lab (BAR HARBOR, USA), and APP/Tau female and APP/PSen1de9 purchased from Taconic (Hudson, USA) were cross-mated for 6 generations, and 4-month-old mouse models were obtained from F1. The dementia mouse models were divided into groups of 6 mice, and among the dementia mouse models, a control group was orally administered with a vehicle (PBS) for 2 months, and an experimental group was orally administered with 100 μg/kg/0.1 ml of N^1-(pyridin-2-ylmethyl)benzene-1,4-diamine (Compound 2) twice a week for 2 months. Thereafter, the mice were sacrificed, and their brains were removed. Their longitudinal sections were cut, and morphological changes were examined. For comparison, a normal mouse was sacrificed and its brain was removed. Its longitudinal section was cut, and morphological changes were examined.

[2] = test system: APP/PS/Tau dementia mouse model; experiment: Morris water maze test, memory capacity of dementia mouse model; assay type: in vivo; conditions: oral 100 μg/kg twice a week for 2 months
Procedure: In order to investigate enhancement of spatial cognition and memory in dementia mouse models by the benzene diamine derivatives of the present disclosure, a Morris water maze (Harvard Apparatus, USA) test was performed.
In detail, a water maze composed of a stainless steel pool with a diameter of 150 cm×a height of 60 cm and an escape platform (10 cm in diameter, 30 cm in height) was filled with water at 22±2° C., and the height was 2 cm above the platform such that when a mouse sat on the escape platform, the body was allowed to come out of the water. […] Escape latency was measured as the time taken for the experimental animal to go to the escape platform when the experimental animal went to the escape platform and stayed thereon for more than 20 seconds. This test was performed three times a day, and a mean value was determined as mean escape latency. The escape latency was recorded on the computer program (Smart Video Tracking System V3.0, PanLab SL, Barcelona, Spain) by installing a camera on the ceiling above the water tank. The experiment was performed three times a day for 6 days, and at this time, the possibility of accidentally visiting the escape platform was minimized by sequentially changing the positions of the experimental animals in the water tank. In the experiment, a normal mouse, a control dementia mouse administered with a vehicle (PBS) and an experimental dementia mouse administered with 100 μg/kg of N^1-(pyridin-2-ylmethypenzene-1,4-diamine (Compound 2) twice a week for 2 months were used after completing administration, as in Experimental Example 1.

monomeric Aβ42 = target: T1, monomeric Aβ42 (Homo sapiens, UniProt P05067); experiment: Brain tissue immunohistofluorescence, monomeric Aβ (BAM-10) and plaques (MX04); assay type: in vivo, mouse; conditions: oral 100 μg/kg twice a week for 2 months, confocal, FIG. 7
T1 construct: from tissue; host or cells: brain of dementia mouse models
T1 sequence (P05067 672-713 limits assumed): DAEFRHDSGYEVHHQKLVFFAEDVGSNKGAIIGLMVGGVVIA
Procedure: Overexpression of monomeric Aβ may increase formation of oligomeric Aβ, Aβ aggregates, and amyloid plaques to cause neuronal cytotoxicity. Therefore, anatomical analysis of the brain tissue was performed to examine whether the benzene diamine derivatives of the present disclosure inhibit monomeric Aβ formation in dementia mouse models.
As in Experimental Example 1, a control group was orally administered with a vehicle for 2 months, and an experimental group was orally administered with 100 μg/kg/0.1 ml of N^1-(pyridin-2-ylmethyl)benzene-1,4-diamine (Compound 2) twice a week for 2 months. The brain was taken from a non-treated dementia mouse model (4 months), and the brains of the control group and the experimental group were also taken after the administration. Each mouse was anesthetized with ketamine, and then the skull was incised. The brain was then embedded in paraffin and subjected to immunohistofluorescence staining. The brain tissues were fixed in formalin and sectioned at a thickness of 50 μm by using a vibrotome, and each tissue was placed on a glass slice. For comparison of monomeric Aβ, BAM-10 monoclonal anti-Aβ primary antibody labeled with QD525 probe (green fluorescence) was used to examine changes in the quantity of monomeric Aβ42. […]

Aβ aggregates = experiment: Brain tissue staining of Aβ aggregates with Thioflavin T; assay type: in vivo, mouse; conditions: oral 100 μg/kg twice a week for 2 months, confocal, FIG. 9
Procedure: Like oligomeric Aβ, Aβ aggregates in the brain tissue may cause neuronal cell death by neuronal cytotoxicity, which may cause dementia. Therefore, anatomical analysis of the brain tissue was performed to examine whether the benzene diamine derivatives of the present disclosure inhibit neuronal cytotoxicity by Aβ aggregates in dementia mouse models.
In detail, as in Experimental Example 7-1, the dementia mouse models were prepared and their brain tissues were stained. Aβ aggregates in the brain tissue were labeled with Thioflavin T (ThT, Sigma-Aldrich) (green fluorescence), plaques were stained with a fluorescent staining reagent MX04 (blue), and incubated at 4° C. for 12 hours. Thereafter, the tissues were observed under a confocal microscope at 0.5×10.

Nc1ccc(NCc2ccccn2)cc1 [Compound 2, N^1-(pyridin-2-ylmethyl)benzene-1,4-diamine]
Cu(II)-Aβ (inhibitory effect on Aβ aggregation) (Cu(II)-Aβ; Table 1 summary of Example 2, symbols not defined): ◯
Cu(II)-Aβ-inhibitory effect (Cu(II)-Aβ; two kinds of Aβ, FIG. 1): very excellent Cu(II)-Aβ-inhibitory effect on two kinds of Aβ
brain morphology / longitudinal section [1]: brain morphology similar to that of the normal group
difference in mean escape latency vs control group at 4 days ([2]; AD mice): 16 s
difference in mean escape latency vs dementia group at 5 days ([2]; AD mice): 19 s
mean escape latency at 4 days ([2]; AD mice): 26 ± 1 s
mean escape latency at 5 days ([2]; AD mice): 24 ± 1 s
mean escape latency at 3 days (worded) ([2]; vs dementia control group, FIG. 5): significantly short mean escape latency
monomeric Aβ formation in cortex and hippocampus (monomeric Aβ42): monomeric Aβ formation was hardly observed
plaques (MX04) in brain (monomeric Aβ42): plaques were hardly observed
Aβ aggregates (ThT) in brain (Aβ aggregates): Aβ aggregates were hardly observed
